Assays:
Assay in all cases: Standardized radiometric kinase assays, percentage of activity at 0.5 μM;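 also: Read-out is ³³P-labelled substrate protein phosphorylated by each kinase, captured on filters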
[1] = molecular target: each individual kinase of the panel (Homo sapiens, UniProt P53355)
[2] = molecular target: each individual kinase of the panel (Homo sapiens, UniProt O00141)
[3] = molecular target: each individual kinase of the panel (Homo sapiens, UniProt Q15139)
[4] = molecular target: each individual kinase of the panel (Homo sapiens, UniProt P42684)
each individual kinase of the panel (Homo sapiens, UniProt P42684), sequence (P42684 2-1182 limits assumed): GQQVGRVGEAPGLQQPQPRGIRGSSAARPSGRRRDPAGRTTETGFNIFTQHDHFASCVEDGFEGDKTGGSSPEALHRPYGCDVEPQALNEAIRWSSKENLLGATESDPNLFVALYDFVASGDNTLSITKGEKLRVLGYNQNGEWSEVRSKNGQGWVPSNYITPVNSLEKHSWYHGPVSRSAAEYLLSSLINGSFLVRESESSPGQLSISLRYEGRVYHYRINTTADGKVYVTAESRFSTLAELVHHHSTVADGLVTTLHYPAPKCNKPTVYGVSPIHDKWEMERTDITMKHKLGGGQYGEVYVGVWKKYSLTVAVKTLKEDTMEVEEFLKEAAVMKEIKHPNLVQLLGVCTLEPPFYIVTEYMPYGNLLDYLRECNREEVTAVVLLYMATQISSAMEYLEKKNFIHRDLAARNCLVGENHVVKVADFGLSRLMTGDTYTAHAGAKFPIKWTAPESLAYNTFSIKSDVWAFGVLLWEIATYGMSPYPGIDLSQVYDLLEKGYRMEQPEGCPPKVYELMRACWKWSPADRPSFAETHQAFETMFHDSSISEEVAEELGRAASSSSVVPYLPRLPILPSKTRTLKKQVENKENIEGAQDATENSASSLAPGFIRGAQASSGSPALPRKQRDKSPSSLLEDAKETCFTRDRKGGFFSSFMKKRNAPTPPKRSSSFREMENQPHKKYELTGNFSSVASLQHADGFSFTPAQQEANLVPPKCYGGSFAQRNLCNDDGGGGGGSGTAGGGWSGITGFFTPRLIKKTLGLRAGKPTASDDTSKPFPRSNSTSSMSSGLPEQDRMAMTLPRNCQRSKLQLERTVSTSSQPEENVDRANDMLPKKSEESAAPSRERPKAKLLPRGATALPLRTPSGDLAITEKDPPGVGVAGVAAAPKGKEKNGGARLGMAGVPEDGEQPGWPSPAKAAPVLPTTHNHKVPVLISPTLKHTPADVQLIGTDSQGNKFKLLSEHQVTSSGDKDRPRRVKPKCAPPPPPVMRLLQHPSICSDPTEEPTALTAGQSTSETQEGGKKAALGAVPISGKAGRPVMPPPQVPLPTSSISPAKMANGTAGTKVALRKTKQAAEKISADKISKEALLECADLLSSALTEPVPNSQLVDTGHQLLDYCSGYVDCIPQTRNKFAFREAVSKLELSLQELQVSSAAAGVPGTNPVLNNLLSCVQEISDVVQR

[5] = molecular target: each individual kinase of the panel (Homo sapiens, UniProt P11362, V561M)
each individual kinase of the panel (Homo sapiens, UniProt P11362, V561M), sequence (P11362 22-822 V561M limits assumed): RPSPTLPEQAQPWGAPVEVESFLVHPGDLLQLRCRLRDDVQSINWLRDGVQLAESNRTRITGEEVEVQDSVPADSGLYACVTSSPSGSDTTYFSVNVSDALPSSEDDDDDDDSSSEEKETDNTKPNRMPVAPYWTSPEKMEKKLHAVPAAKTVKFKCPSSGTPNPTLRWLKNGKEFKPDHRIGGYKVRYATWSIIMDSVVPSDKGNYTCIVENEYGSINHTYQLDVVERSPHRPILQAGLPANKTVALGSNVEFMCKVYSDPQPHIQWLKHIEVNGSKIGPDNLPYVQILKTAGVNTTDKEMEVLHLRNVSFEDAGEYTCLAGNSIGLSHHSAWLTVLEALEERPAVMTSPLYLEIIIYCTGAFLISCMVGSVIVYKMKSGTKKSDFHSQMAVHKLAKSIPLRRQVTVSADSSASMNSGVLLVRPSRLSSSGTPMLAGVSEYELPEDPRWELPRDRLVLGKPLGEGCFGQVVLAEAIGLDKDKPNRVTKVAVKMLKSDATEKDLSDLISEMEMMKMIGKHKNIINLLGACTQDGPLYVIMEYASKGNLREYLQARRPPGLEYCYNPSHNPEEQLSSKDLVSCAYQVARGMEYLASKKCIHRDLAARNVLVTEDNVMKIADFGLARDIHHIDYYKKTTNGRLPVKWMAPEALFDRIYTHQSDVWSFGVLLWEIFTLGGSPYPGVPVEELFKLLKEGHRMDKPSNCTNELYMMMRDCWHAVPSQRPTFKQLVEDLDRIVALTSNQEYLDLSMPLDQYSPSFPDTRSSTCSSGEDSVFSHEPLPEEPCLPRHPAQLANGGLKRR

[6] = molecular target: each individual kinase of the panel (Homo sapiens, UniProt Q16566)
[7] = molecular target: each individual kinase of the panel (Homo sapiens, UniProt Q13188)
[8] = molecular target: each individual kinase of the panel (Homo sapiens, UniProt O96017)
[9] = molecular target: each individual kinase of the panel (Homo sapiens, UniProt Q7KZI7)
[10] = molecular target: each individual kinase of the panel (Homo sapiens, UniProt P10721, D816V)
each individual kinase of the panel (Homo sapiens, UniProt P10721, D816V), sequence (P10721 26-976 D816V limits assumed): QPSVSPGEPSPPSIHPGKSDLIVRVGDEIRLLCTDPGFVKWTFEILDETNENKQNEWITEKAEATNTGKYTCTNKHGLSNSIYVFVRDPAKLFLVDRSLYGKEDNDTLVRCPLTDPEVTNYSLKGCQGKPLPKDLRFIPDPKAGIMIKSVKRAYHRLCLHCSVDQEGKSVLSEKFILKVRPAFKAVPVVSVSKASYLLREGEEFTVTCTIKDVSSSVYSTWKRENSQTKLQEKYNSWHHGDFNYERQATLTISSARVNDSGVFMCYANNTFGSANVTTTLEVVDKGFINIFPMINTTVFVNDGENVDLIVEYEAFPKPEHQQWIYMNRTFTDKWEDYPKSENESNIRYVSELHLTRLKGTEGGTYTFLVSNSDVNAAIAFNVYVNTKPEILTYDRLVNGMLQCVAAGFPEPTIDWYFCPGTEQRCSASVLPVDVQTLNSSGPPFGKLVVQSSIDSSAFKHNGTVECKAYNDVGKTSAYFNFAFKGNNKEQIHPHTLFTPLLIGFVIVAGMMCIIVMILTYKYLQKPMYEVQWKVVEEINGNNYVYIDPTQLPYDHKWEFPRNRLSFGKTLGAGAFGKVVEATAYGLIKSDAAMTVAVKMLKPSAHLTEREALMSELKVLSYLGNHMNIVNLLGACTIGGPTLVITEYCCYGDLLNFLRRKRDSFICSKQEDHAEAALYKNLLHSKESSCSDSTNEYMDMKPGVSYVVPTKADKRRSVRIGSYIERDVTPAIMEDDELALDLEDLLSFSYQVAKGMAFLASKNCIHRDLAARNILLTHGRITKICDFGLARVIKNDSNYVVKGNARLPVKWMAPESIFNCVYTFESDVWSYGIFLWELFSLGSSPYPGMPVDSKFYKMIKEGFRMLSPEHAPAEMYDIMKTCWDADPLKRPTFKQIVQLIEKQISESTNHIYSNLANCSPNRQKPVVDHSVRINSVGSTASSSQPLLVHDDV

[11] = molecular target: each individual kinase of the panel (Homo sapiens, UniProt P53667)
[12] = molecular target: each individual kinase of the panel (Homo sapiens, UniProt P51956)
[13] = molecular target: each individual kinase of the panel (Homo sapiens, UniProt Q13555)
[14] = molecular target: each individual kinase of the panel (Homo sapiens, UniProt Q9H2K8)
[15] = molecular target: each individual kinase of the panel (Homo sapiens, UniProt P29323)
each individual kinase of the panel (Homo sapiens, UniProt P29323), sequence (P29323 19-1055 limits assumed): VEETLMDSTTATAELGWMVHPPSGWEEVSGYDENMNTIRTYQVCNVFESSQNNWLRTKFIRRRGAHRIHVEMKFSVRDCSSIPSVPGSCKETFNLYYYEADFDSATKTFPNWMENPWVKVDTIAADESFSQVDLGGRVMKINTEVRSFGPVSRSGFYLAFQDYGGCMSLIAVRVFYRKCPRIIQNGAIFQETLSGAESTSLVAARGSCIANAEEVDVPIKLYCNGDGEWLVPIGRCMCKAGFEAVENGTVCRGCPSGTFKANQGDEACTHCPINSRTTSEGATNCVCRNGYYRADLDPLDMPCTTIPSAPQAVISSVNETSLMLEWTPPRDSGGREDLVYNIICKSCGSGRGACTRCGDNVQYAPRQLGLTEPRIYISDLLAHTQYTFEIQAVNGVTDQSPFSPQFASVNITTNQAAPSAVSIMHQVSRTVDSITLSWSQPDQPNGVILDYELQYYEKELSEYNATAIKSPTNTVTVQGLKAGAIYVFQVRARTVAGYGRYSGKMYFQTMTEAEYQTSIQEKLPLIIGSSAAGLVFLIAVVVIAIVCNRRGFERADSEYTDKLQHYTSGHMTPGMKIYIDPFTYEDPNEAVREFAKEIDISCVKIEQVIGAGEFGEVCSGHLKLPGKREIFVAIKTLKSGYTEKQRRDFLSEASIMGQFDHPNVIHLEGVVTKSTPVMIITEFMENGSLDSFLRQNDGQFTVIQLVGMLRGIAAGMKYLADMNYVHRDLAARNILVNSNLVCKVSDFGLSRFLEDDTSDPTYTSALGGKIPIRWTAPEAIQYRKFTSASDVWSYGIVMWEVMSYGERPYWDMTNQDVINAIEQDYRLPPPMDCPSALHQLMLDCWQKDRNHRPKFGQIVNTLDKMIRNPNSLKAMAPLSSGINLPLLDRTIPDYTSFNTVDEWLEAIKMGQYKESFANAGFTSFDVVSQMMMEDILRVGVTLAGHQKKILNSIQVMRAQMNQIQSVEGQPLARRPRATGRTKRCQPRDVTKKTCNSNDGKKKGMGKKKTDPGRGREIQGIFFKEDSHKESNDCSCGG

[16] = molecular target: each individual kinase of the panel (Homo sapiens, UniProt Q9UIK4)
[17] = molecular target: each individual kinase of the panel (Homo sapiens, UniProt Q9P0L2)
[18] = molecular target: each individual kinase of the panel (Homo sapiens, UniProt P42685)
[19] = molecular target: each individual kinase of the panel (Homo sapiens, UniProt Q9HBY8)
[20] = molecular target: each individual kinase of the panel (Homo sapiens, UniProt Q96BR1)
[21] = molecular target: each individual kinase of the panel (Homo sapiens, UniProt O43353)
[22] = molecular target: each individual kinase of the panel (Homo sapiens, UniProt P10721, V654A)
each individual kinase of the panel (Homo sapiens, UniProt P10721, V654A), sequence (P10721 26-976 V654A limits assumed): as the sequence (P10721 26-976 D816V limits assumed) above, with V629A, V791D counted along it

[23] = molecular target: each individual kinase of the panel (Homo sapiens, UniProt Q02156)
[24] = molecular target: each individual kinase of the panel (Homo sapiens, UniProt Q9BYT3)
[25] = molecular target: each individual kinase of the panel (Homo sapiens, UniProt Q5VT25)
[26] = molecular target: each individual kinase of the panel (Homo sapiens, UniProt P53779)
[27] = molecular target: each individual kinase of the panel (Homo sapiens, UniProt P21802, N549H)
each individual kinase of the panel (Homo sapiens, UniProt P21802, N549H), sequence (P21802 22-821 N549H limits assumed): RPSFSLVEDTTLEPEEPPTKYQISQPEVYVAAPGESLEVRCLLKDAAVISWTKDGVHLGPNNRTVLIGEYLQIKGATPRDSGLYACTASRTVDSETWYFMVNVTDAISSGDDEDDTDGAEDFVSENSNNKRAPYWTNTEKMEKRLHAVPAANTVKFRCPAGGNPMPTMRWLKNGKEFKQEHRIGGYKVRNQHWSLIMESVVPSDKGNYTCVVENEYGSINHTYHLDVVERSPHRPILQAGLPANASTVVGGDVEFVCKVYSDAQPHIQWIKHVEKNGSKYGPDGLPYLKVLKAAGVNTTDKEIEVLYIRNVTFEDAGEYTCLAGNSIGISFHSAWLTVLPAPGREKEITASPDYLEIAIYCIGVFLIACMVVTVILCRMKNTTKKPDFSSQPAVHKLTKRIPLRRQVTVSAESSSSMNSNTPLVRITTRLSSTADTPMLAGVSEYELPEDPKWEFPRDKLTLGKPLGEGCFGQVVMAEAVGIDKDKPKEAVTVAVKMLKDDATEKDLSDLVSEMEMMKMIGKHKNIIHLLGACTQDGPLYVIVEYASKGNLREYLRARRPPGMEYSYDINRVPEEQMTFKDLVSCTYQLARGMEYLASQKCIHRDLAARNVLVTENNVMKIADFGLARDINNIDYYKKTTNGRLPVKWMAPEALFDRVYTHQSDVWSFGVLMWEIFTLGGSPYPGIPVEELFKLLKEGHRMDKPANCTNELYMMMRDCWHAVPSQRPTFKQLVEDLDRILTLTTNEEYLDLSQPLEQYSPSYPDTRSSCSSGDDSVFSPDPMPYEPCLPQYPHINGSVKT

[28] = molecular target: each individual kinase of the panel (Homo sapiens, UniProt O15264)
[29] = molecular target: each individual kinase of the panel (Homo sapiens, UniProt Q86Y07)
[30] = molecular target: each individual kinase of the panel (Homo sapiens, UniProt Q86Z02)
[31] = molecular target: each individual kinase of the panel (Homo sapiens, UniProt P31751)

C#Cc1cccc(Nc2nc3cc(C(=O)O)ccc3c3cncnc23)c1 [drawing 1135]
DAPK1 percentage of activity [1]: 58%
SGK percentage of activity [2]: −1%
PRKCM percentage of activity [3]: −4%
ABL2 percentage of activity [4]: 2%
FGFR1 (V561M) percentage of activity [5]: 12%
CAMK4 percentage of activity [6]: 2%
MST2 percentage of activity [7]: −6%
CHK2 percentage of activity [8]: 5%
PAR-1B alpha percentage of activity [9]: 7%
cKit(D816V) percentage of activity [10]: 2%
LIMK1 percentage of activity [11]: 3%
NEK3 percentage of activity [12]: −12%
CAMK2G percentage of activity [13]: 36%
TAO3 percentage of activity [14]: 22%
EPHB2 percentage of activity [15]: 13%
DAPK2 percentage of activity [16]: 91%
MARK1 percentage of activity [17]: 0%
FRK percentage of activity [18]: 3%
SGK2 percentage of activity [19]: 2%
SGK3 percentage of activity [20]: 2%
RIPK2 percentage of activity [21]: 2%
cKit(V654A) percentage of activity [22]: 8%
PRKCE percentage of activity [23]: 0%
STK33 percentage of activity [24]: 0%
MRCKA percentage of activity [25]: −10%
JNK3 percentage of activity [26]: −3%
FGFR2 (N549H) percentage of activity [27]: 4%
p38-delta percentage of activity [28]: −1%
VRK2 percentage of activity [29]: −3%
HIPK1 percentage of activity [30]: 90%
AKT2 percentage of activity [31]: −10%

— US8168651B2, “Protein kinase modulators” (Cylene Pharmaceuticals, Inc., priority 2008, dated 2012)
